The test system of data set [1] is Mus musculus. Put plainly: Neurotoxicity against Mus musculus MFI (mouse) assessed as excitation at 120 mg/kg, ip. It is filed as toxicity, organism-based. Further details: dose 120 mg/kg, route intraperitoneal. The conditions noted are these: in vivo.
In data set [2] the test system is Mus musculus. Nature of the data set: Neurotoxicity against Mus musculus MFI (mouse) assessed as skeletal muscle incoordination at 120 mg/kg, ip. It is filed as toxicity, organism-based, Muscle tissue. Further details: dose 120 mg/kg, route intraperitoneal. To be noted: in vivo.
Data set [3] relates to Mus musculus. Nature of the data set: Neurotoxicity against Mus musculus MFI (mouse) assessed as irritability at 60 mg/kg, ip. It is filed as toxicity, organism-based. Further details: dose 60 mg/kg, route intraperitoneal. To be noted: in vivo.
The test system of data set [4] is Mus musculus. Put plainly: Neurotoxicity against Mus musculus MFI (mouse) assessed as muscle twitching at 60 mg/kg, ip. It counts as toxicity, organism-based, Muscle tissue. Further details: dose 60 mg/kg, route intraperitoneal. To be noted: in vivo.
The test system of data set [5] is Mus musculus. Nature of the data set: Neurotoxicity against Mus musculus MFI (mouse) assessed as epilepsy at 60 mg/kg, ip. It counts as toxicity, organism-based. Further details: dose 60 mg/kg, route intraperitoneal. To be noted: in vivo.
Data set [6] has as its system Mus musculus. Nature of the data set: Neurotoxicity against Mus musculus MFI (mouse) assessed as hair erection at 60 mg/kg, ip. The conditions noted are these: in vivo. Further details: dose 60 mg/kg, route intraperitoneal. It counts as toxicity, organism-based.
In data set [7] the test system is Mus musculus. Put plainly: Neurotoxicity against Mus musculus MFI (mouse) assessed as skeletal muscle incoordination at 180 mg/kg, ip. It is filed as toxicity, organism-based, Muscle tissue. Further details: dose 180 mg/kg, route intraperitoneal. To be noted: in vivo.
In data set [8] the test system is Mus musculus. Put plainly: Neurotoxicity against Mus musculus MFI (mouse) assessed as skeletal muscle incoordination at 60 mg/kg, ip. It is filed as toxicity, organism-based, Muscle tissue. Further details: dose 60 mg/kg, route intraperitoneal. The conditions noted are these: in vivo.
Data set [9] relates to Mus musculus. Nature of the data set: Neurotoxicity against Mus musculus MFI (mouse) assessed as effect on respiration at 180 mg/kg, ip. It is filed as toxicity, organism-based. Further details: dose 180 mg/kg, route intraperitoneal. To be noted: in vivo.
Data set [10] concerns Mus musculus. Nature of the data set: Neurotoxicity against Mus musculus MFI (mouse) assessed as epilepsy at 120 mg/kg, ip. The conditions noted are these: in vivo. Further details: dose 120 mg/kg, route intraperitoneal. It is filed as toxicity, organism-based.
Data set [11] deals with Mus musculus. Put plainly: Neurotoxicity against Mus musculus MFI (mouse) assessed as hair erection at 180 mg/kg, ip. Further details: dose 180 mg/kg, route intraperitoneal. It counts as toxicity, organism-based. The conditions noted are these: in vivo.
Data set [12] deals with Mus musculus. Put plainly: Neurotoxicity against Mus musculus MFI (mouse) assessed as tremors at 120 mg/kg, ip. It counts as toxicity, organism-based. Further details: dose 120 mg/kg, route intraperitoneal. To be noted: in vivo.
The test system of data set [13] is Mus musculus. Put plainly: Neurotoxicity against Mus musculus MFI (mouse) assessed as muscle twitching at 120 mg/kg, ip. It is filed as toxicity, organism-based, Muscle tissue. Further details: dose 120 mg/kg, route intraperitoneal. The conditions noted are these: in vivo.
For data set [14], the system named is Mus musculus. Nature of the data set: […] activity in Mus musculus MFI (mouse) assessed as inhibition of PBQ-induced writhing at 120 mg/kg, ip administered 1.5 hr prior to PBQ-challenge measured after 10 min relative to aspirin. It is filed as functional. To be noted: route intraperitoneal. (In general: Writhing tests count abdominal constrictions after an irritant is injected.)

The subject of data set [15] is Mus musculus. Put plainly: Neurotoxicity against Mus musculus MFI (mouse) assessed as tremors at 60 mg/kg, ip. Further details: dose 60 mg/kg, route intraperitoneal. To be noted: in vivo. It counts as toxicity, organism-based.
For data set [16], the system named is Mus musculus. Nature of the data set: […] activity in ip dosed Mus musculus MFI (mouse) assessed as inhibition of PBQ-induced writhing administered 1.5 hr prior to PBQ-challenge measured after 10 min. The conditions noted are these: read-out: MED. It is filed as functional.
Data set [17] has as its system Mus musculus. Put plainly: Neurotoxicity against Mus musculus MFI (mouse) assessed as muscle twitching at 180 mg/kg, ip. It counts as toxicity, organism-based, Muscle tissue. Further details: dose 180 mg/kg, route intraperitoneal. The conditions noted are these: in vivo.
The subject of data set [18] is Mus musculus. Put plainly: Neurotoxicity against Mus musculus MFI (mouse) assessed as eye protrusion at 120 mg/kg, ip. Further details: dose 120 mg/kg, route intraperitoneal. It is filed as toxicity, organism-based. The conditions noted are these: in vivo.
The subject of data set [19] is Mus musculus. Nature of the data set: Neurotoxicity against Mus musculus MFI (mouse) assessed as irritability at 180 mg/kg, ip. The conditions noted are these: in vivo. It is filed as toxicity, organism-based. Further details: dose 180 mg/kg, route intraperitoneal.
Data set [20] relates to Mus musculus. Nature of the data set: Neurotoxicity against Mus musculus MFI (mouse) assessed as eye protrusion at 180 mg/kg, ip. It counts as toxicity, organism-based. The conditions noted are these: in vivo. Further details: dose 180 mg/kg, route intraperitoneal.
For data set [21], the system named is Mus musculus. Put plainly: Neurotoxicity against Mus musculus MFI (mouse) assessed as tail erection at 60 mg/kg, ip. It is filed as toxicity, organism-based. Further details: dose 60 mg/kg, route intraperitoneal. To be noted: in vivo.
Data set [22] relates to Mus musculus. Put plainly: Neurotoxicity against Mus musculus MFI (mouse) assessed as excitation at 180 mg/kg, ip. It is filed as toxicity, organism-based. The conditions noted are these: in vivo. Further details: dose 180 mg/kg, route intraperitoneal.
The test system of data set [23] is Mus musculus. Put plainly: Neurotoxicity against Mus musculus MFI (mouse) assessed as hair erection at 120 mg/kg, ip. It counts as toxicity, organism-based. Further details: dose 120 mg/kg, route intraperitoneal. The conditions noted are these: in vivo.
In data set [24] the test system is Mus musculus. Nature of the data set: Neurotoxicity against Mus musculus MFI (mouse) assessed as effect on respiration at 60 mg/kg, ip. It is filed as toxicity, organism-based. Further details: dose 60 mg/kg, route intraperitoneal. To be noted: in vivo.
Data set [25] has as its system Mus musculus. Put plainly: Neurotoxicity against Mus musculus MFI (mouse) assessed as irritability at 120 mg/kg, ip. Further details: dose 120 mg/kg, route intraperitoneal. The conditions noted are these: in vivo. It is filed as toxicity, organism-based.
The subject of data set [26] is Mus musculus. Nature of the data set: Neurotoxicity against Mus musculus MFI (mouse) assessed as tail erection at 120 mg/kg, ip. It counts as toxicity, organism-based. Further details: dose 120 mg/kg, route intraperitoneal. The conditions noted are these: in vivo.
Data set [27] has as its system Mus musculus. Nature of the data set: Neurotoxicity against Mus musculus MFI (mouse) assessed as excitation at 60 mg/kg, ip. It counts as toxicity, organism-based. Further details: dose 60 mg/kg, route intraperitoneal. To be noted: in vivo.
Data set [28] concerns Mus musculus. Nature of the data set: Neurotoxicity against Mus musculus MFI (mouse) assessed as eye protrusion at 60 mg/kg, ip. It is filed as toxicity, organism-based. Further details: dose 60 mg/kg, route intraperitoneal. The conditions noted are these: in vivo.
In data set [29] the test system is Mus musculus. Nature of the data set: Neurotoxicity against Mus musculus MFI (mouse) assessed as epilepsy at 180 mg/kg, ip. It counts as toxicity, organism-based. Further details: dose 180 mg/kg, route intraperitoneal. To be noted: in vivo.
Data set [30] deals with Mus musculus. Put plainly: […] activity in Mus musculus MFI (mouse) assessed as inhibition of PBQ-induced writhing at 180 mg/kg, ip administered 1.5 hr prior to PBQ-challenge measured after 10 min relative to aspirin. It is filed as functional. The conditions noted are these: route intraperitoneal.
The subject of data set [31] is Mus musculus. Nature of the data set: Neurotoxicity against Mus musculus MFI (mouse) assessed as effect on respiration at 120 mg/kg, ip. It is filed as toxicity, organism-based. Further details: dose 120 mg/kg, route intraperitoneal. The conditions noted are these: in vivo.
Data set [32] has as its system Mus musculus. Nature of the data set: Neurotoxicity against Mus musculus MFI (mouse) assessed as tail erection at 180 mg/kg, ip. It is filed as toxicity, organism-based. Further details: dose 180 mg/kg, route intraperitoneal. To be noted: in vivo.
For data set [33], the system named is Mus musculus. Put plainly: Neurotoxicity against Mus musculus MFI (mouse) assessed as tremors at 180 mg/kg, ip. Further details: dose 180 mg/kg, route intraperitoneal. It is filed as toxicity, organism-based. To be noted: in vivo.
The test system of data set [34] is Mus musculus. Nature of the data set: Neurotoxicity in ip dosed Mus musculus MFI (mouse). It counts as toxicity, organism-based. To be noted: in vivo.
For data set [35], the system named is Mus musculus. Put plainly: […] activity in Mus musculus MFI (mouse) assessed as inhibition of PBQ-induced writhing at 60 mg/kg, ip administered 1.5 hr prior to PBQ-challenge measured after 10 min relative to aspirin. The conditions noted are these: route intraperitoneal. It is filed as functional.
For data set [36], the system named is Mus musculus. Put plainly: […] activity in Mus musculus MFI (mouse) assessed as inhibition of PBQ-induced writhing at 100 mg/kg, ip administered 1.5 hr prior to PBQ-challenge measured after 10 min relative to control. It is filed as functional. The conditions noted are these: route intraperitoneal.

Molecules are shown by their SMILES.

A word on the inhibition in vivo: it is the change of the read-out against control, counted positive when it falls. For the molecule `CC(COc1cccc(Cl)c1Cl)N1CCN(C)CC1.O=C(O)C(=O)O` (racemic), the Activity result with Mus musculus [1], with Mus musculus [2], with Mus musculus [3], in the data set with Mus musculus [4], with Mus musculus [5] and in the data set with Mus musculus [6] was “Toxic” in each case. For the same molecule, the Activity result with Mus musculus [7], in the data set on Mus musculus [8], in the data set on Mus musculus [9], with Mus musculus [10], with Mus musculus [11] and in the data set on Mus musculus [12] was “Toxic” each time. The Activity entry in the data set with Mus musculus [13], with Mus musculus [15], with Mus musculus [17], in the data set with Mus musculus [18], in the data set with Mus musculus [19] and in the data set with Mus musculus [20] was “Toxic” in each case. For the same molecule, the Activity result with Mus musculus [21], with Mus musculus [22], in the data set with Mus musculus [23], in the data set with Mus musculus [24], in the data set with Mus musculus [25] and with Mus musculus [26] was “Toxic” each time. For the same molecule, the Activity result in the data set with Mus musculus [27], in the data set with Mus musculus [28], with Mus musculus [29], in the data set on Mus musculus [31], in the data set with Mus musculus [32] and with Mus musculus [33] was “Toxic” throughout. In addition, the inhibition in vivo at 120 mg/kg in the data set with Mus musculus [14] worked out at 75%. The minimal effective dose in the data set with Mus musculus [16] worked out at 60 mg/kg. Further, the inhibition in vivo at 180 mg/kg in the data set with Mus musculus [30] was 100%. For the same molecule, the MTC in the data set on Mus musculus [34] came out at 120 mg/kg. Moreover, in the data set on Mus musculus [35], the inhibition in vivo at 60 mg/kg turned out to be 37.5%.
Take `CC(=O)Oc1ccccc1C(=O)O` [ASPIRIN]: the inhibition in vivo at 100 mg/kg in the data set on Mus musculus [36] is 100%.

For the origin of these results see ChEMBL document CHEMBL3044925, “Synthesis of piperazino and morpholino derivatives of aryloxypropane with potential analgesic and possible antimigraine activities” (Med Chem Res, 2011).
